Data published in patent US20120272343A1, “STROMAL INTERACTING MOLECULE KNOCKOUT MOUSE AND USES THEREOF” (IMMUNE DISEASE INSTITUTE, INC., priority 2007, published 2012).

System: CRAC current (ICRAC)
Test: Whole cell patch-clamp recordings of CRAC current in differentiated CD4+ T cells
Type: cell-based, mouse
Details: for increase in current amplitude following 2-APB application: thapsigargin-pretreated, 2-APB 40 μM, step to −100 mV
Description: CD4^+ T cells were cultured in non-polarizing conditions and harvested at day 5. Patch-clamp recordings were performed using an Axopatch 200 amplifier (Axon Instruments) interfaced to an ITC-18 input/output board (Instrutech) and an iMac G5 computer. Currents were filtered at 1 kHz with a 4-pole Bessel filter and sampled at 5 kHz. Recording electrodes were pulled from 100-μl pipettes, coated with Sylgard, and fire-polished to a final resistance of 2-5 MΩ. Stimulation and data acquisition and analysis were performed using in-house routines developed on the Igor Pro platform (Wavemetrics). All data were corrected for the liquid junction potential of the pipette solution relative to Ringer's in the bath (10 mV) and for leak currents collected in 20 mM [Ca^2+]o+25 μM La^3+. The standard extracellular Ringer solution contained (in mM): 130 NaCl, 4.5 KCl, 20 CaCl2, 1 MgCl2, 10 D-glucose, and 5 Na-Hepes (pH 7.4). In some experiments, 2 mM CaCl2 was used in the standard extracellular solution and the NaCl concentration was raised to 150 mM. The standard divalent-free (DVF) Ringer solutions contained (in mM) 150 NaCl, 10 mM tetraacetic acid, 1 mM EDTA and 10 mM Hepes (pH 7.4). 25 nM charybdotoxin (Sigma) was added to all extracellular solutions to eliminate contamination from Kv1.3 channels. […] Averaged results are presented as the mean value±s.e.m. Curve fitting was done by least-squares methods using built-in functions in Igor Pro 5.0. The permeability of Cs^+ relative to that of Na^+ was calculated from the bionic reversal potential using the relation:

| Compound | block of Na+ CRAC currents (wild-type mouse T cells, 20 μM Ca2+) | increase in current amplitude following 2-APB application (STIM2-deficient T cells, n=5) | increase in current amplitude following 2-APB application (control T cells, n=4) |
| --- | --- | --- | --- |
| [Ca+2] [Ca^2+] | ~50% |  |  |
| NCCOB(c1ccccc1)c1ccccc1 [2-APB, 2-Aminoethoxydiphenyl borate] |  | 30±7% | 26±6% |
